Experimental data reported in ChEMBL document CHEMBL3885881, “DrugMatrix”.

Organism: Rattus norvegicus
Test: DrugMatrix - Regimen: Daily Repeat
Type: toxicity, organism-based, Sprague-Dawley
Parameters: regimen Daily Repeat, gender Male, age 6-8 weeks
Details: in vivo, po, […], route oral GAVAGE, dose 0.28 mg/Kg, dose level Low; for ABSOLUTE BASOPHIL / ABSOLUTE EOSINOPHIL / ABSOLUTE LYMPHOCYTE / ABSOLUTE MONOCYTE / ABSOLUTE SEGMENTED NEUTROPHIL / BASOPHIL / EOSINOPHIL / ERYTHROCYTE COUNT / HEMATOCRIT / HEMOGLOBIN / LEUKOCYTE COUNT / LYMPHOCYTE / MEAN CORPUSCULAR HEMOGLOBIN / MEAN CORPUSCULAR HEMOGLOBIN CONCENTRATION / MEAN CORPUSCULAR VOLUME / MONOCYTE / NEUTROPHIL / NUCLEATED RED BLOOD CELLS / PLATELET COUNT: tissue Blood; for ALANINE AMINOTRANSFERASE / ALBUMIN / ALKALINE PHOSPHATASE / ASPARTATE AMINOTRANSFERASE / BLOOD UREA NITROGEN / CARBON DIOXIDE / CHLORIDE / CHOLESTEROL / CREATINE PHOSPHOKINASE / CREATININE / GLUCOSE / LACTATE DEHYDROGENASE / LIPASE / PHOSPHORUS / POTASSIUM / SODIUM / TOTAL BILIRUBIN / TOTAL PROTEIN / URIC ACID: tissue Plasma

CC(C(=O)O)c1ccc(CC2CCCC2=O)cc1 (stereo unspecified) [LOXOPROFEN]
ABSOLUTE BASOPHIL (72 h, time 3 day): 0 CELLS/uL | ABSOLUTE EOSINOPHIL (72 h, time 3 day): 0 CELLS/uL | ABSOLUTE LYMPHOCYTE (72 h, time 3 day): 8216 CELLS/uL | ABSOLUTE MONOCYTE (72 h, time 3 day): 105.67 CELLS/uL | ABSOLUTE SEGMENTED NEUTROPHIL (72 h, time 3 day): 1111.67 CELLS/uL | BASOPHIL (72 h, time 3 day): 0% | EOSINOPHIL (72 h, time 3 day): 0% | ERYTHROCYTE COUNT (72 h, time 3 day): 5.18 x10E6/uL | HEMATOCRIT (72 h, time 3 day): 32.3% | HEMOGLOBIN (72 h, time 3 day): 13.07 G/DL | LEUKOCYTE COUNT (72 h, time 3 day): 9.43 x10E3/uL | LYMPHOCYTE (72 h, time 3 day): 87.33% | MEAN CORPUSCULAR HEMOGLOBIN (72 h, time 3 day): 25.23 pg | MEAN CORPUSCULAR HEMOGLOBIN CONCENTRATION (72 h, time 3 day): 40.47 G/DL | MEAN CORPUSCULAR VOLUME (72 h, time 3 day): 62.37 fL | MONOCYTE (72 h, time 3 day): 1% | NEUTROPHIL (72 h, time 3 day): 11.67% | NUCLEATED RED BLOOD CELLS (72 h, time 3 day): 0 /100WBC | PLATELET COUNT (72 h, time 3 day): 1232.67 x10E3/uL | ALANINE AMINOTRANSFERASE (72 h, time 3 day): 78.33 u/L | ALBUMIN (72 h, time 3 day): 4 G/DL | ALKALINE PHOSPHATASE (72 h, time 3 day): 425 u/L | ASPARTATE AMINOTRANSFERASE (72 h, time 3 day): 95.33 u/L | BLOOD UREA NITROGEN (72 h, time 3 day): 17 mg/dL | CARBON DIOXIDE (72 h, time 3 day): 30 mmol/L | CHLORIDE (72 h, time 3 day): 101.33 MEQ/L | CHOLESTEROL (72 h, time 3 day): 69 mg/dL | CREATINE PHOSPHOKINASE (72 h, time 3 day): 495.67 u/L | CREATININE (72 h, time 3 day): 0.2 mg/dL | GLUCOSE (72 h, time 3 day): 186.33 mg/dL | LACTATE DEHYDROGENASE (72 h, time 3 day): 214.33 u/L | LIPASE (72 h, time 3 day): 8.67 u/L | PHOSPHORUS (72 h, time 3 day): 12.6 mg/dL | POTASSIUM (72 h, time 3 day): 6.25 MEQ/L | SODIUM (72 h, time 3 day): 143.63 MEQ/L | TOTAL BILIRUBIN (72 h, time 3 day): 0.17 mg/dL | TOTAL PROTEIN (72 h, time 3 day): 5.5 G/DL | URIC ACID (72 h, time 3 day): 1.43 mg/dL | ABSOLUTE BASOPHIL (120 h, time 5 day): 0 CELLS/uL | ABSOLUTE EOSINOPHIL (120 h, time 5 day): 43.33 CELLS/uL | ABSOLUTE LYMPHOCYTE (120 h, time 5 day): 10902.67 CELLS/uL | ABSOLUTE MONOCYTE (120 h, time 5 day): 142 CELLS/uL | ABSOLUTE SEGMENTED NEUTROPHIL (120 h, time 5 day): 678.67 CELLS/uL | BASOPHIL (120 h, time 5 day): 0% | EOSINOPHIL (120 h, time 5 day): 0.33% | ERYTHROCYTE COUNT (120 h, time 5 day): 5.61 x10E6/uL | HEMATOCRIT (120 h, time 5 day): 35.07% | HEMOGLOBIN (120 h, time 5 day): 14.17 G/DL | LEUKOCYTE COUNT (120 h, time 5 day): 11.77 x10E3/uL | LYMPHOCYTE (120 h, time 5 day): 93% | MEAN CORPUSCULAR HEMOGLOBIN (120 h, time 5 day): 25.23 pg | MEAN CORPUSCULAR HEMOGLOBIN CONCENTRATION (120 h, time 5 day): 40.4 G/DL | MEAN CORPUSCULAR VOLUME (120 h, time 5 day): 62.43 fL | MONOCYTE (120 h, time 5 day): 1.33% | NEUTROPHIL (120 h, time 5 day): 5.33% | NUCLEATED RED BLOOD CELLS (120 h, time 5 day): 0 /100WBC | PLATELET COUNT (120 h, time 5 day): 984.33 x10E3/uL | ALANINE AMINOTRANSFERASE (120 h, time 5 day): 57 u/L | ALBUMIN (120 h, time 5 day): 4.3 G/DL | ALKALINE PHOSPHATASE (120 h, time 5 day): 291 u/L | ASPARTATE AMINOTRANSFERASE (120 h, time 5 day): 85.33 u/L | BLOOD UREA NITROGEN (120 h, time 5 day): 18 mg/dL | CARBON DIOXIDE (120 h, time 5 day): 26.67 mmol/L | CHLORIDE (120 h, time 5 day): 103.67 MEQ/L | CHOLESTEROL (120 h, time 5 day): 68.67 mg/dL | CREATINE PHOSPHOKINASE (120 h, time 5 day): 238 u/L | CREATININE (120 h, time 5 day): 0.23 mg/dL | GLUCOSE (120 h, time 5 day): 187.33 mg/dL | LACTATE DEHYDROGENASE (120 h, time 5 day): 153.33 u/L | LIPASE (120 h, time 5 day): 11 u/L | PHOSPHORUS (120 h, time 5 day): 11.87 mg/dL | POTASSIUM (120 h, time 5 day): 5.74 MEQ/L | SODIUM (120 h, time 5 day): 144.4 MEQ/L | TOTAL BILIRUBIN (120 h, time 5 day): 0.2 mg/dL | TOTAL PROTEIN (120 h, time 5 day): 5.83 G/DL | URIC ACID (120 h, time 5 day): 1.6 mg/dL
